This assay has as its target T1, AORX514 (AOR-His) (Thermoanaerobacter pseudethanolicus, UniProt B0K8P3).
T1 construct: gene Teth39_0850; full length, C-terminal 6xHis (plasmid pJM009), made in Thermoanaerobacter kivui MB014; W-containing, FeS cluster
The experiment in a line: acetaldehyde-dependent viologen reduction at […] nm; substrate inhibition kinetics. It is filed as biochemical. Conditions: benzyl viologen as electron acceptor, routine assay 50 mM TRIS pH 7.5, 65 °C, anoxic.

The source of these data is article PMC10816221, “A Versatile Aldehyde: Ferredoxin Oxidoreductase from the Organic Acid Reducing Thermoanaerobacter sp. Strain X514” (International Journal of Molecular Sciences, 2024).

The structures appear in SMILES notation.

T1 sequence (B0K8P3 1-599): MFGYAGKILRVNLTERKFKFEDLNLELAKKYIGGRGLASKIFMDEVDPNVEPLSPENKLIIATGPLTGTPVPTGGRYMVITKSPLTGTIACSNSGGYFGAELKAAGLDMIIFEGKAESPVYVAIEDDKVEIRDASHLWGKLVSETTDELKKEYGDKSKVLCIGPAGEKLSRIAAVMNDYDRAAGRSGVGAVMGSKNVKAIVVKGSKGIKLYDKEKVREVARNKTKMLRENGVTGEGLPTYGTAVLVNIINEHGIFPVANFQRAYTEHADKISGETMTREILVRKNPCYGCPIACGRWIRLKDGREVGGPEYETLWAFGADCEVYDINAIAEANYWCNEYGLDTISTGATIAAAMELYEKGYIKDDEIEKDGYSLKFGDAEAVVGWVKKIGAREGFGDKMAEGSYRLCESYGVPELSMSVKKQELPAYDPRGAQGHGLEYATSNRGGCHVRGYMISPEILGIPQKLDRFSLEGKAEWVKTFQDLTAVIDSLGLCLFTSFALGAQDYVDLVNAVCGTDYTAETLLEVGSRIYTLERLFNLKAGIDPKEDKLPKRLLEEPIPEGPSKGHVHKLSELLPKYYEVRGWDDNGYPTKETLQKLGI

The compound `CC=O` [Acetaldehyde] gave a ki of 8.7 ± 1.3 mM.
